The source made the active and inactive calls. No cut-off for these calls is given here.
Columns and labels:
[1] = Selectivity index, ratio of CC50 for monkey LLC-MK2 cells to IC50 for antitrypanosomal activity against intracellular amastigote form of Trypanosoma cruzi Tulahuen strain infected in monkey LLC-MK2 cells; format: toxicity, cell-based; settings: read-out: Ratio CC50/IC50
Trypanosoma cruzi [2] = assay: (§1) Antitrypanosomal activity against intracellular amastigote form of Trypanosoma cruzi Tulahuen strain infected in monkey LLC-MK2 cells assessed as reduction in parasite viability incubated for 72 hrs by beta-galactosidase reporter gene assay; format: functional, organism-based
[3] = Cytotoxicity against monkey LLC-MK2 cells assessed as reduction in cell viability incubated for 72 hrs by MTT assay; format: cell-based, Macaca mulatta; settings: rhesus monkey
[4] = Hepatotoxicity in BALB/c mouse infected with blood trypomastigote form of Trypanosoma cruzi strain Y assessed as ALT level in plasma at 25 mg/kg, po administered via gavage daily for 15 days starting from 2 days post-infection and measured on 16th day post-infection; format: toxicity, organism-based; settings: in vivo, 360 h, time 15 day
[5] = Reduction in inflammatory cell infiltration in heart of BALB/c mouse infected with blood trypomastigote form of Trypanosoma cruzi strain Y at 25 mg/kg, po administered via gavage daily for 15 days starting from 2 days post-infection and measured on 16th day post-infection by haematoxylin and eosin staining based microscopic analysis relative to control; format: functional; settings: 360 h, time 15 day
[6] = Cardiac toxicity in BALB/c mouse infected with blood trypomastigote form of Trypanosoma cruzi strain Y assessed as CK-MB level in plasma at 25 mg/kg, po administered via gavage daily for 15 days starting from 2 days post-infection and measured on 16th day post-infection; format: organism-based; settings: in vivo, 360 h, time 15 day
Trypanosoma cruzi [7] = assay: (§2) Antitrypanosomal activity against blood trypomastigote form of Trypanosoma cruzi strain Y infected in BALB/c mouse assessed as reduction in amastigote nest in host heart at 25 mg/kg, po administered via gavage daily for 15 days starting from 2 days post-infection and measured on 16th day post-infection by haematoxylin and eosin staining based microscopic analysis; format: functional; settings: for inhibition in vivo at 25 mg/kg: 360 h, time 15 day
Trypanosoma cruzi [8] = assay: as §1, with “Potency index, ratio of benznidazole IC50 to test compound IC50 for antitrypanosomal” for “Antitrypanosomal”; format: functional
Trypanosoma cruzi [9] = assay: as §2, with “parasitemia” for “amastigote nest in host heart”, “7th” for “16th”, “optical microscopy relative to control” for “haematoxylin and eosin staining based microscopic analysis”; format: functional; settings: 360 h, time 15 day
Trypanosoma cruzi [10] = assay: as §2, with “parasite DNA load” for “amastigote nest”, “qPCR” for “haematoxylin and eosin staining based microscopic”, “analysis relative to control” for “analysis”; format: functional; settings: for Activity: time 15.0 day
Trypanosoma cruzi [11] = assay: as §2, with “parasitemia” for “amastigote nest in host heart”, “13th” for “16th”, “optical microscopy relative to control” for “haematoxylin and eosin staining based microscopic analysis”; format: functional; settings: 360 h, time 15 day
[12] = Hepatotoxicity in BALB/c mouse infected with blood trypomastigote form of Trypanosoma cruzi strain Y assessed as AST level in plasma at 25 mg/kg, po administered via gavage daily for 15 days starting from 2 days post-infection and measured on 16th day post-infection; format: toxicity, organism-based; settings: in vivo, 360 h, time 15 day
[13] = Renal toxicity in BALB/c mouse infected with blood trypomastigote form of Trypanosoma cruzi strain Y assessed as creatinine level in plasma at 25 mg/kg, po administered via gavage daily for 15 days starting from 2 days post-infection and measured on 16th day post-infection; format: organism-based; settings: in vivo, 360 h, time 15 day
[14] = Trypanosoma cruzi, Tulahuen, LLC-MK2, 72 h, read-out: IC50

Row | IC50 (Trypanosoma cruzi [2]; [14]) | Structure (SMILES) | selectivity ratio [1] | CC50 at 72 h [3] | other results
1 | 21.4 µM | Cc1nn(-c2ccccc2)c2nc(-c3ccccc3)cc(C(=O)N/N=C/c3ccc(O)cc3)c12 | > 250 | > 250 µM | 
2 | 21 µM | COc1ccc(/C=N/NC(=O)c2cc(-c3ccccc3)nc3c2c(C)nn3-c2ccccc2)cc1O | 2.52 | 53 µM | 
3 | 10.5 µM | CC(=O)N1N=C(c2cc(-c3ccccc3)nc3c2c(C)nn3-c2ccccc2)OC1c1cccc(O)c1 (stereo not drawn) | 1.63 | 17.2 µM | 
4 | 23.2 µM | Cc1nn(-c2ccccc2)c2nc(-c3ccccc3)cc(C(=O)N/N=C/c3cccc(O)c3)c12 | 3 | 69.6 µM | 
5 | 0.85 µM | Cc1nn(-c2ccccc2)c2nc(-c3ccccc3)cc(C(=O)N/N=C/c3ccccc3O)c12 | > 235 | > 200 µM | Activity [4]: Non-Toxic; inhibition in vivo at 25 mg/kg [5]: 62.5%; Activity [6]: Toxic; Activity (Trypanosoma cruzi [7]; time 15.0 day): inactive; Ratio IC50 (Trypanosoma cruzi [8]): 4; inhibition in vivo at 25 mg/kg (Trypanosoma cruzi [9]): 44.7%; Activity (Trypanosoma cruzi [10]): inactive; inhibition in vivo at 25 mg/kg (Trypanosoma cruzi [11]): 14.5%; Activity [12]: Non-Toxic; Activity [13]: Non-Toxic
6 | 3.98 µM | O=C(Cn1ccnc1[N+](=O)[O-])NCc1ccccc1 [BENZNIDAZOLE] | > 50.2 | > 200 µM | Activity [4]: Non-Toxic; inhibition in vivo at 25 mg/kg [5]: 76%; Activity [6]: Non-Toxic; inhibition in vivo at 25 mg/kg (Trypanosoma cruzi [7]): 100%; inhibition in vivo at 25 mg/kg (Trypanosoma cruzi [10]; 360 h, time 15 day): 99%; Activity [12]: Non-Toxic; Activity [13]: Non-Toxic
7 |  | COc1ccc(C2OC(c3cc(-c4ccccc4)nc4c3c(C)nn4-c3ccccc3)=NN2C(C)=O)cc1OC(C)=O (stereo not drawn) |  |  | IC50 (Trypanosoma cruzi [2]; llc-mk2): Nd(Insoluble)
8 | 22.9 µM | Cc1nn(-c2ccccc2)c2nc(-c3ccccc3)cc(C(=O)N/N=C/c3ccc(O)c(O)c3)c12 | 3.11 | 71.2 µM | 
9 | 16.2 µM | CC(=O)Oc1cccc(C2OC(c3cc(-c4ccccc4)nc4c3c(C)nn4-c3ccccc3)=NN2C(C)=O)c1 (stereo not drawn) | > 6.15 | > 100 µM | 
10 | 22.6 µM | CC(=O)Oc1ccc(C2OC(c3cc(-c4ccccc4)nc4c3c(C)nn4-c3ccccc3)=NN2C(C)=O)cc1 (stereo not drawn) | 2.86 | 64.8 µM | 
11 | 1.11 µM | CC(=O)Oc1ccccc1C1OC(c2cc(-c3ccccc3)nc3c2c(C)nn3-c2ccccc2)=NN1C(C)=O (stereo not drawn) | > 90.1 | > 100 µM | Activity [4]: Non-Toxic; inhibition in vivo at 25 mg/kg [5]: 51%; Activity [6]: Non-Toxic; inhibition in vivo at 25 mg/kg (Trypanosoma cruzi [7]): 57%; inhibition in vivo at 25 mg/kg (Trypanosoma cruzi [9]): 46.1%; Activity (Trypanosoma cruzi [10]): inactive; inhibition in vivo at 25 mg/kg (Trypanosoma cruzi [11]): 53%; Activity [12]: Non-Toxic; Activity [13]: Non-Toxic
12 | 33.9 µM | CC(=O)Oc1ccc(C2OC(c3cc(-c4ccccc4)nc4c3c(C)nn4-c3ccccc3)=NN2C(C)=O)cc1OC(C)=O (stereo not drawn) | 1.6 | 54.5 µM | 
13 | 17.7 µM | CC(=O)N1N=C(c2cc(-c3ccccc3)nc3c2c(C)nn3-c2ccccc2)OC1c1ccc(O)cc1 (stereo not drawn) | 1.94 | 34.4 µM | 

From ChEMBL document CHEMBL4673293, “Trypanocidal activity of new 1,6-diphenyl-1H-pyrazolo[3,4-b]pyridine derivatives: Synthesis, in vitro and in vivo studies” (Bioorg Med Chem, 2021)
